This is an account of results in PubChem BioAssay (NCI).

Values joined by “and” are separate entries in the source; they are usually repeats but may differ in a detail not shown here. Identical values can stand only once.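 These data come from cells grown in 96-well plates and exposed to compound for 48 hours at five concentrations. The concentration for 50% growth inhibition is given as GI50. TGI denotes the concentration required for complete inhibition of growth.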

Some test systems named below: ACHN renal; EKVX NSCLC; LOX IMVI melanoma; M14 melanoma; MALME-3M melanoma; MCF7 breast; NCI/ADR-RES ovarian; OVCAR-8 ovarian; RPMI-8226 leukemia; SF-539 CNS; T-47D breast; UACC-257 melanoma; A498 renal; BT-549 breast.
Holding throughout (assay): NCI anticancer screen, dose series, 48 h

In the case of `N#Cc1cccc(Nc2ccccc2SSc2ccccc2Nc2cccc(C#N)c2)c1`, the TGI with ACHN renal is more than 21.5 µM; in the assay with EKVX NSCLC it was more than 21.5 µM; in the assay on LOX IMVI melanoma it was 8.88 µM; in the assay on M14 melanoma it was 18.6 µM; with MALME-3M melanoma it was 15.8 µM; in the assay on MCF7 breast it was 16.5 µM. Moreover, the TGI in the assay with NCI/ADR-RES ovarian was 19.7 µM; with OVCAR-8 ovarian, more than 21.5 µM; with RPMI-8226 leukemia, 11.5 µM; in the assay on SF-539 CNS it was 17.4 µM; with T-47D breast, more than 21.5 µM; with UACC-257 melanoma, more than 21.5 µM.
Regarding `COC1/C=C/C(C)C(C(C)C(OC)C(C)CCC(=O)C(C)C(CC(=O)O)OC)OC(=O)/C=C/C=C(\C)CC(OC)C(OC)C2=CC(=O)O[C@@H](C(C)C(OC)CC(OC)/C=C/C(C)C(O)C1)[C@H]2O` (some centres not stated), the TGI was 0.365 µM with A498 renal; more than 1.07 µM in the assay with ACHN renal; 0.175 µM in the assay with EKVX NSCLC; more than 1.07 µM in the assay on LOX IMVI melanoma; 0.0739 µM in the assay on M14 melanoma; more than 1.07 µM with MCF7 breast. Besides, the TGI in the assay with NCI/ADR-RES ovarian is 0.47 µM; in the assay with OVCAR-8 ovarian it was 0.132 µM; in the assay on RPMI-8226 leukemia it was more than 1.07 µM; in the assay on T-47D breast, 0.981 µM; in the assay on UACC-257 melanoma, more than 1.07 µM.
In the case of `COc1cccc2c1C(=O)c1c(O)c3c(c(O)c1C2=O)CC(O)(C(C)=O)CC3OC1CC([N+](C)(C)C)C(O)C(C)O1` (configuration not stated), the TGI in the assay with A498 renal, in the assay with ACHN renal, in the assay with EKVX NSCLC, with LOX IMVI melanoma, with M14 melanoma and in the assay with MALME-3M melanoma was more than 100 µM each time. Further, the TGI in the assay on OVCAR-8 ovarian, with RPMI-8226 leukemia, in the assay on SF-539 CNS and in the assay on UACC-257 melanoma was more than 100 µM in each case.
Regarding `CCOC(=O)/C(=C\NC[C@@H](C)O)c1nc2ccccc2[nH]1`, the TGI was more than 100 µM in the assay on A498 renal; 90.4 µM in the assay on ACHN renal; more than 100 µM with BT-549 breast; more than 100 µM with EKVX NSCLC; more than 100 µM in the assay on LOX IMVI melanoma; more than 100 µM in the assay on M14 melanoma. In addition, the TGI in the assay on MALME-3M melanoma was more than 100 µM; in the assay with MCF7 breast, more than 100 µM; with NCI/ADR-RES ovarian, more than 100 µM; in the assay with OVCAR-8 ovarian it was more than 100 µM; in the assay on RPMI-8226 leukemia, 63.3 µM; in the assay on SF-539 CNS it was more than 100 µM. Further, the TGI in the assay with UACC-257 melanoma was more than 100 µM.
`CCOC(=O)CCN1C(=O)c2ccc(NC(=O)C(=O)O)cc2S1(=O)=O`: the TGI in the assay with A498 renal, in the assay on ACHN renal, in the assay on BT-549 breast, in the assay with EKVX NSCLC, in the assay on LOX IMVI melanoma and in the assay on M14 melanoma was more than 100 µM throughout. For the same compound, the TGI with MALME-3M melanoma, in the assay with MCF7 breast, with NCI/ADR-RES ovarian, with OVCAR-8 ovarian, in the assay on RPMI-8226 leukemia and with SF-539 CNS was more than 100 µM in each case. The TGI in the assay with UACC-257 melanoma was more than 100 µM.
For `CCOC(=O)C12C3CCC1C2C(=O)C3` (configuration not stated), the TGI with ACHN renal, with BT-549 breast, with EKVX NSCLC, in the assay with LOX IMVI melanoma, in the assay with M14 melanoma and in the assay on MALME-3M melanoma was more than 100 µM throughout. The TGI with MCF7 breast, in the assay with NCI/ADR-RES ovarian, in the assay with OVCAR-8 ovarian, in the assay with RPMI-8226 leukemia, in the assay on SF-539 CNS and in the assay on UACC-257 melanoma was more than 100 µM throughout.
As to `CC[N+](C)(C)c1ccc(C(=C2C=CC(=[N+](C)C)C=C2)c2ccc(N(C)C)cc2)cc1`, the TGI was 48.4 µM in the assay on A498 renal; 62.1 µM in the assay on ACHN renal; more than 100 µM in the assay on EKVX NSCLC; 24.2 µM in the assay on LOX IMVI melanoma; 31.4 µM in the assay with M14 melanoma; 66.3 µM with MALME-3M melanoma. In addition, the TGI is 64.9 µM in the assay with OVCAR-8 ovarian, 7.36 µM in the assay with RPMI-8226 leukemia, 50.4 µM with SF-539 CNS and 28.6 µM in the assay with UACC-257 melanoma.
On to `COC(=O)CC(SCCO)SCCO`, for which the TGI in the assay with A498 renal, in the assay on ACHN renal, with EKVX NSCLC, in the assay with LOX IMVI melanoma, in the assay on M14 melanoma and in the assay with MALME-3M melanoma was more than 100 µM throughout. Also, the TGI with NCI/ADR-RES ovarian, with OVCAR-8 ovarian, in the assay with RPMI-8226 leukemia, in the assay on SF-539 CNS and with UACC-257 melanoma was more than 100 µM throughout.
Consider `Nc1nc([O-])c([I+]c2ccccc2)c(=O)[nH]1`, for which the TGI with A498 renal, in the assay on ACHN renal, in the assay with BT-549 breast, with EKVX NSCLC, in the assay on LOX IMVI melanoma and in the assay with MALME-3M melanoma was more than 100 µM throughout. Further, the TGI in the assay with MCF7 breast, in the assay on NCI/ADR-RES ovarian, in the assay on OVCAR-8 ovarian, with RPMI-8226 leukemia, in the assay on SF-539 CNS and with UACC-257 melanoma was more than 100 µM each time.
For `O=c1ccc(-c2ccc(-n3ccnc3)cc2)nn1CCO`, the TGI in the assay with A498 renal, in the assay on ACHN renal, in the assay with BT-549 breast, in the assay with EKVX NSCLC, in the assay with M14 melanoma and with MALME-3M melanoma was more than 100 µM in each case. Moreover, the TGI in the assay on MCF7 breast, in the assay on OVCAR-8 ovarian, in the assay with RPMI-8226 leukemia, in the assay on SF-539 CNS and with UACC-257 melanoma was more than 100 µM throughout.
On to `CN1NC2=NCCN=C3NN(C)C(=NCCN=C1S2)S3`, for which the TGI with A498 renal, in the assay with ACHN renal, in the assay on EKVX NSCLC, with LOX IMVI melanoma, in the assay on M14 melanoma and in the assay with OVCAR-8 ovarian was more than 100 µM in each case. Moreover, the TGI with RPMI-8226 leukemia, in the assay with SF-539 CNS and in the assay on UACC-257 melanoma was more than 100 µM each time.
As to `Nc1ccc2c(c1)N(C(=O)CCCC(=O)N1CC(CCl)c3ccc(N)cc31)CC2CCl` (configuration not stated), the TGI in the assay on A498 renal was 3.47 µM; in the assay on ACHN renal it was more than 41 µM; with BT-549 breast, 6.53 µM; with EKVX NSCLC it was 7.8 µM; in the assay with LOX IMVI melanoma, 11.3 µM; in the assay on M14 melanoma it was 4.7 µM. In addition, the TGI in the assay with MALME-3M melanoma is 0.451 µM; with MCF7 breast, 12.9 µM; in the assay on NCI/ADR-RES ovarian, 42.7 µM; in the assay on OVCAR-8 ovarian, more than 11.2 µM; with RPMI-8226 leukemia, more than 10.2 µM; in the assay with SF-539 CNS, 11.3 µM. The same compound came in with a TGI in the assay with UACC-257 melanoma of more than 50 µM.
For the compound `CC[C@@]1(O)C(=O)OCc2c1cc1n(c2=O)Cc2c-1nc1ccccc1c2C=Nc1ccc(N[C@@H]2c3cc4c(cc3[C@@H](c3cc(OC)c(O)c(OC)c3)[C@H]3C(=O)OC[C@@H]32)OCO4)cc1`, the GI50 with A498 renal is 0.21 µM and 0.0448 µM; with EKVX NSCLC, 2.51 µM and 0.665 µM; in the assay with MALME-3M melanoma, 0.676 µM and 0.155 µM; with NCI/ADR-RES ovarian, 0.0449 µM and < 0.01 µM; in the assay with OVCAR-8 ovarian, 0.0264 µM and 0.016 µM; with UACC-257 melanoma it was 0.354 µM. The TGI with A498 renal is 1.72 µM and 0.261 µM; with ACHN renal, 0.0374 µM; in the assay with EKVX NSCLC, 19.9 µM and 10.9 µM; in the assay on M14 melanoma it was 0.742 µM and 0.253 µM; with OVCAR-8 ovarian, 0.263 µM; in the assay with SF-539 CNS, 0.132 µM.
As for `CC12CC(=O)OC(Cc3ccccc31)O2` (configuration not stated), the TGI with ACHN renal, in the assay with EKVX NSCLC, in the assay with LOX IMVI melanoma, with M14 melanoma, with MALME-3M melanoma and in the assay on OVCAR-8 ovarian was more than 100 µM throughout. Besides, the TGI in the assay with RPMI-8226 leukemia, with SF-539 CNS and in the assay with UACC-257 melanoma was more than 100 µM each time.
In the case of `Cc1ccc(-n2nnc3c(NNc4ccccc4)n[nH]c(=O)c32)cc1`, the TGI in the assay on ACHN renal, in the assay on BT-549 breast, with EKVX NSCLC, with LOX IMVI melanoma, in the assay on M14 melanoma and in the assay on MALME-3M melanoma was more than 100 µM throughout. The TGI with MCF7 breast, in the assay with NCI/ADR-RES ovarian, in the assay with OVCAR-8 ovarian, in the assay on RPMI-8226 leukemia, in the assay on SF-539 CNS and in the assay on UACC-257 melanoma was more than 100 µM in each case.
For `C[C@@H]1C(=O)O[C@@H]2C[C@@]1(C)[C@@H]1C(=O)C3(O)OC14C2(C)OC(=O)[C@@]4(O)CCC1C3C(O)C=C2CC=CC(=O)[C@@]21C` (some centres not stated), the TGI was more than 100 µM in the assay with ACHN renal; more than 100 µM in the assay with EKVX NSCLC; 90.8 µM with M14 melanoma; more than 100 µM in the assay on MCF7 breast; more than 100 µM in the assay with NCI/ADR-RES ovarian; more than 100 µM in the assay on OVCAR-8 ovarian. The TGI in the assay on RPMI-8226 leukemia was 61.3 µM; in the assay with SF-539 CNS it was 53.5 µM; in the assay on T-47D breast it was more than 100 µM; with UACC-257 melanoma, more than 100 µM.
On to `CC1=CC(=C(c2ccc(N)c(C)c2)c2ccc(N)c(C)c2)C=CC1=N`, for which the TGI was more than 100 µM in the assay with A498 renal; 69.2 µM with ACHN renal; 45.8 µM in the assay on EKVX NSCLC; 15.3 µM in the assay with LOX IMVI melanoma; 18.3 µM in the assay on M14 melanoma; 11.2 µM in the assay with MALME-3M melanoma. Also, the TGI with OVCAR-8 ovarian was 18.3 µM; in the assay on RPMI-8226 leukemia, 29.6 µM; in the assay with SF-539 CNS, 14.5 µM; in the assay on UACC-257 melanoma it was 15.7 µM.
Take `COC(=O)/C=C/COCC1C2CCC(=O)C21` (configuration not stated): the TGI in the assay on ACHN renal, with BT-549 breast, in the assay on EKVX NSCLC, in the assay on LOX IMVI melanoma, with M14 melanoma and in the assay with MALME-3M melanoma was more than 100 µM in each case. For the same compound, the TGI in the assay on MCF7 breast, in the assay on NCI/ADR-RES ovarian, in the assay with OVCAR-8 ovarian, in the assay on RPMI-8226 leukemia, in the assay with SF-539 CNS and in the assay with UACC-257 melanoma was more than 100 µM each time.
